Experiments:
[1] = test system: A549; test: NCI60 five-dose GI50 (NCI data); format: cell-based; details: Homo sapiens, SI Table S20
From the text: The concentration−response curve generated enables the determination of three criteria, GI50 (drug concentration at which 50% of cell growth is inhibited), total growth inhibition (TGI) and LC50 (drug concentration at which 50% of tumor cells are killed) which can be used to compare effectiveness against any compound tested in the screen since its inception.
S2.1 NCI Screening Assay Experimental details
NCI Screening Assay Experimental: Cancer cell growth assays (NCI60 screening) 5,6 […]
Unbound dye was […]
removed with five washes of 1% acetic acid, and the plates were allowed to air dry. The dye was then resolubilised in Tris buffer, and the colorimetric absorbance was measured (515 nm). Growth inhibition was measured relative to the response generated from proliferating cells cultured under identical conditions for 48 h. Data from one-dose experiments pertains to the percentage growth at […]
Five-dose study: Serial 5 × 10-fold dilution from an initial DMSO stock solution was performed, prior to incubation at each individual concentration (10 nM, 100 nM, 1 μM, 10 μM and 100 μM). Using seven absorbance measurements (time zero (Tz), control growth (C), and test growth in the presence of drug at the five concentration levels (Ti)), the percentage growth was calculated at each of the drug concentrations levels. […] Three dose response parameters were calculated for each experimental agent. […]

[2] = test system: NCI-H460 cells; test: Alkaline Comet assay (DNA damage); format: cell-based, human; details: 48 h; 2 × GI50; preliminary, data not shown
Method: Hydrogen peroxide (Sigma-Aldrich) was used as a positive control (50 μM). Harvested cells were resuspended in 0.5% low melting point agarose (Thermo Fisher Scientific) and poured onto slides precoated with 1% normal melting point agarose (Sigma-Aldrich). Cells were then lysed with ice-cold lysis buffer [100 mM Na2EDTA (Sigma-Aldrich), […] (Sigma-Aldrich), 10 mM Tris-Base (Sigma-Aldrich), pH 10.0, 1% and Triton X-100 (Sigma-Aldrich)) for 2 h in the dark at 4 °C. Then, after two washes with distilled water, slides were placed on an electrophoresis tank filled with electrophoresis buffer [300 mM NaOH (Sigma-Aldrich), 1 mM Na2EDTA; pH 13.0] and incubated for 40 min to allow DNA to unwind. Electrophoresis was carried out for 20 min at 32 V. Then slides were immersed twice in pure ethanol and allowed to dry at RT. Slides were stained with SyberGold staining solution (Invitrogen) in Tris-EDTA buffer [10 mM Tris-HCl (Sigma-Aldrich) and 1 mM EDTA (Sigma-Aldrich); pH 7.5] for 30 min with agitation and protected from light. In the end, slides washed and dried were visualized on a Zeiss Axio Imager Z1 microscope, equipped with the Axiovision 4.9 software.

## COC(=O)c1c2c(c[n+]([O-])c1C)C(=O)C=C(NCc1ccccc1)C2=O [Compound 25]
[1]
  GI50: 232 nM
[2]
  DNA damage: did not increase DNA damage
